Reference: patent EP1707197A1 (TEVA PHARMACEUTICAL INDUSTRIES LTD., priority 2005, dated 2006)

Assay: small volume in vitro release test in 50 ml 0.1N HCl
Format: physicochemical
Details: 37° C, 150 rpm
Procedure: The formulations were tested for their small volume in vitro release characteristics in 50 ml 0.1N HCl at 37° C and 150 rpm using the following procedure:
• a. Automated Dissolution System comprising: • Hanson SR8 Plus Test Station • Hanson Auto Plus Maximiser System Controller • Hanson Auto Plus MultiFill Fraction Collector • b. HPLC System comprising: • pump - Merck Hitachi L-7100 • autoinjector - Merck Hitachi L-7200 • column oven - Merck Hitachi L-7300 • detector - Merck Hitachi L-7400 • interface and integration software - Merck Hitachi D-7000
Place one weighed capsule in each vessel containing 0.1N HCl and immediately operate the apparatus for 30 min. Unless otherwise specified, 3 ml samples are withdrawn from each vessel and immediately filtered through PTFE membranes at 15 and 30 min.
The small volume was chosen as a model of the conditions in a fasted stomach.

% dissolved 15 min (15 min): 0%
% dissolved 30 min (30 min): 0%
SMILES: CC(C)OC(=O)C(C)(C)Oc1ccc(C(=O)c2ccc(Cl)cc2)cc1 [Micronized Fenofibrate, 2-[4-(4-chlorobenzoyl)phenoxy]-2-methyl-propanoic acid, 1-methylethyl ester]
